In patent publication US20250002475A1 (EPICS THERAPEUTICS, priority 2023, published 2025):

How the values were obtained:
[1] = system: Caov-3 cells; test: Caov-3 cellular viability assay (ATP-Lite, 72 h); type: cell-based; conditions: Homo sapiens, ATP-Lite luminescence, % viability relative to DMSO
Method in brief: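 10000 cells/well treated 72 h at 37 °C, 5% CO2, in RPMI-1640 with 10% FBS and 0.1% DMSO final. Viability by ATP-Lite One Step luminescence. Expressed as % of DMSO control, with IC50 from each compound's concentration-response curve.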

[2] = system: Kasumi-1 cells; test: Kasumi-1 cellular viability assay (ATP-Lite, 72 h); type: cell-based; conditions: Homo sapiens, ATP-Lite luminescence, % viability relative to DMSO
Method in brief: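 Kasumi-1 AML cells, 15000/well in RPMI-1640 with 10% FBS, were exposed to compound titrations (0.1% final DMSO) for 72 h at 37 °C, 5% CO2. ATP-Lite One Step luminescence gave % viability versus DMSO control, and IC50 came from the concentration-response.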

[3] = target: T1, recombinant METTL3/METTL14 complex (Homo sapiens, UniProt Q86U44); test: METTL3/14 Scintillation Proximity Assay (SPA), RNA methyltransferase activity; type: biochemical; conditions: 5.31 nM METTL3/14 complex, 250 nM RNA substrate, 1 μM 3H-SAM, 90 min; for compounds marked * best of the two separated forms
T1 construct: purchased Active Motif 311970; host or cells: Sf9 cells
T1 sequence (Q86U44 whole entry): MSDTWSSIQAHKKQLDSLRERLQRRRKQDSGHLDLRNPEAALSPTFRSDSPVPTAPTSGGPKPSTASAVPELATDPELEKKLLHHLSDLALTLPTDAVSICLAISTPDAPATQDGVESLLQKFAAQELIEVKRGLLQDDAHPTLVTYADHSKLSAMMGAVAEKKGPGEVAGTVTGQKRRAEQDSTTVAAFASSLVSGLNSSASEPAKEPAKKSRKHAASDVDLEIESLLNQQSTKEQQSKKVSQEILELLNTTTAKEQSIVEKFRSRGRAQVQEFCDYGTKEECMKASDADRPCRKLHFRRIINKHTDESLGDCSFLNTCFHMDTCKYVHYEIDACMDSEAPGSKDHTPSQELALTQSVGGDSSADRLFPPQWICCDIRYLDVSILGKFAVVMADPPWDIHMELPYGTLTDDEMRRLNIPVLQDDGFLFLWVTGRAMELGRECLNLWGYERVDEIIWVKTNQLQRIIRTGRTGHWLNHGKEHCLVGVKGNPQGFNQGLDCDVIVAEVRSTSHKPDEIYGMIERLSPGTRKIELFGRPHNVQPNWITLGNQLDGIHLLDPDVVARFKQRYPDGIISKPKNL
T1 sequence (Q9HCE5 whole entry partner): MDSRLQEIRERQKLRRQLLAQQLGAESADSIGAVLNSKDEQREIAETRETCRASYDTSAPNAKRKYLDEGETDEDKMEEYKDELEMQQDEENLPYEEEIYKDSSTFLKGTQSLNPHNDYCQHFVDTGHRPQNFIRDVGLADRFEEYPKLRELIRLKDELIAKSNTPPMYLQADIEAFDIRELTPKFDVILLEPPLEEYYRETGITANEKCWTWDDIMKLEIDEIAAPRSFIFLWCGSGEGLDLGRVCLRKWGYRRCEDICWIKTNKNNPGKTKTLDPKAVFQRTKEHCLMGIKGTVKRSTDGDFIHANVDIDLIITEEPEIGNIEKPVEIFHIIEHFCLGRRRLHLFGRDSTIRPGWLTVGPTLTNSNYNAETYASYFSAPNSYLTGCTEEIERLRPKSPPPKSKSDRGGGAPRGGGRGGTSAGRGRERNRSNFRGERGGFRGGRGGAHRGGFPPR

Which results are given for `CC1CN(c2cncc(-c3cn(C(C)n4ccc(N5CCC[C@@H](NCC6CCC6)C5)cc4=O)nn3)c2)C1` (single isomer, unassigned) [Compound 177]?
IC50 [1]: ≤ 500 nM; IC50 [2]: ≤ 500 nM; IC50 [3]: ≤ 50 nM

Which IC50 [1] does the source give for `O=C(Nc1cc(=O)n2ccccc2n1)C1(c2ccc(N3CCC[C@@H](NCC4(C(F)(F)F)CCC4)C3)cn2)COC1` [Compound 337, (R)-N-(4-oxo-4H-pyrido[1,2-a]pyrimidin-2-yl)-3-(5-(3-(((1-(trifluoromethyl)cyclobutyl)methyl)amino)piperidin-1-yl)pyridin-2-yl)oxetane-3-carboxamide] here?
The IC50 was no more than 500 nM.

And the IC50 [2]?
Its IC50 is 500 to 5000 nM.

And the IC50 [3]?
The IC50 was no more than 50 nM.

Which IC50 [1] does the source give for `O=C(Nc1cc(=O)n2ccccc2n1)C1(c2ccc(N3CCC[C@@H](NC4CCC4)C3)cn2)COC1` [Compound 327, (R)-3-(5-(3-(cyclobutylamino)piperidin-1-yl)pyridin-2-yl)-N-(4-oxo-4H-pyrido[1,2-a]pyrimidin-2-yl)oxetane-3-carboxamide] here?
Its IC50 is 500 to 5000 nM.

And the IC50 [2]?
Its IC50 is 500 to 5000 nM.

What about the IC50 [3] of the same compound?
The IC50 was no more than 50 nM.

For `O=C(Nc1cncc(N2CCCC2)n1)C1(c2ccc(N3CCC[C@@H](NCC4CCC4)C3)cn2)COC1` [Compound 262, (R)-3-(5-(3-((cyclobutylmethyl)amino)piperidin-1-yl)pyridin-2-yl)-N-(6-(pyrrolidin-1-yl)pyrazin-2-yl)oxetane-3-carboxamide], which IC50 [1] is on record?
The IC50 was no more than 500 nM.

And the IC50 [2]?
The IC50 was no more than 500 nM.

And the IC50 [3]?
The IC50 was no more than 50 nM.

`COc1cc(-c2cn(Cc3ccc(N4CCCC(NC5CC56CCC6)C4)nn3)nn2)c2cn[nH]c2c1` (stereo not drawn) [Compound 025, 1-(6-((4-(6-methoxy-1H-indazol-4-yl)-1H-1,2,3-triazol-1-yl)methyl)pyridazin-3-yl)-N-(spiro[2.3]hexan-1-yl)piperidin-3-amine] was tested. Which IC50 [1] did it give?
Its IC50 is no more than 500 nM.

What about the IC50 [2] of the same compound?
The IC50 was 500 to 5000 nM.

What about the IC50 [3] of the same compound?
The IC50 was no more than 50 nM.

What does the source list for `CC#Cc1cncc(-c2cn(C3(c4ccc(N5CCC[C@@H](NCC6CC6)C5)cn4)COC3)nn2)c1` [Compound 345, (R)-N-(cyclopropylmethyl)-1-(6-(3-(4-(5-(prop-1-vn-1-yl)pyridin-3-yl)-1H-1,2,3-triazol-1-yl)oxetan-3-yl)pyridin-3-yl)piperidin-3-amine]?
IC50 [1]: ≤ 500 nM; IC50 [2]: ≤ 500 nM; IC50 [3]: ≤ 50 nM

How did the IC50 [1] turn out when `FC(F)(F)C1(CN[C@@H]2CCCN(c3ccc(C4(n5cc(-c6cncc(C7CC7)c6)nn5)COC4)nc3)C2)CC1` [Compound 335, (R)-1-(6-(3-(4-(5-cyclopropylpyridin-3-yl)-1H-1,2,3-triazol-1-yl)oxetan-3-yl)pyridin-3-yl)-N-((1-(trifluoromethyl)cyclopropyl)methyl)piperidin-3-amine] was run?
Its IC50 is no more than 500 nM.

And the IC50 [2]?
The IC50 was 500 to 5000 nM.

And the IC50 [3]?
The IC50 was no more than 50 nM.

Which results are given for `O=C(NCc1ccc(N2CCCC(NCC34CC(F)(C3)C4)C2)nn1)c1cc(=O)n2ccccc2n1` (stereo not drawn) [Compound 011, N-((6-(3-(((3-fluorobicyclo[1.1.1]pentan-1-yl)methyl)amino)piperidin-1-yl)pyridazin-3-yl)methyl)-4-oxo-4H-pyrido[1,2-a]pyrimidine-2-carboxamide]?
IC50 [1]: > 5000 nM; IC50 [2]: > 5000 nM; IC50 [3]: 50 to 500 nM

Which results are given for `CC(c1ccc(N2CCC[C@@H](NCC3CC3)C2)nn1)n1cnc(-c2cncc(N3CCCC3)n2)c1` (single isomer, unassigned) [Compound 340]?
IC50 [1]: ≤ 500 nM; IC50 [2]: ≤ 500 nM; IC50 [3]: ≤ 50 nM

Which results are given for `COc1cncc(-c2cn(C(C)c3ccc(N4CCC[C@@H](NCC5CCC5)C4)nn3)nn2)c1` (single isomer, unassigned) [Compound 066]?
IC50 [1]: 500 to 5000 nM; IC50 [2]: 500 to 5000 nM; IC50 [3]: ≤ 50 nM

Which IC50 [1] does the source give for `CC(C)(c1ccc(N2CCC[C@@H](NCC3CC3)C2)cn1)c1nnc(-c2cncc(C3CC3)c2)s1` [Compound 363, (R)-N-(cyclopropylmethyl)-1-(6-(2-(5-(5-cyclopropylpyridin-3-yl)-1,3,4-thiadiazol-2-yl)propan-2-yl)pyridin-3-yl)piperidin-3-amine] here?
Its IC50 is 500 to 5000 nM.

What about the IC50 [2] of the same compound?
Its IC50 is 500 to 5000 nM.

What about the IC50 [3] of the same compound?
Its IC50 is no more than 50 nM.

With `CC(c1ccc(N2CCC[C@@H](NCC3CC3)C2)cn1)n1cc(-c2cncc(N(C)C)n2)nn1` (single isomer, unassigned) [Compound 260] as the compound, how does the IC50 [1] read?
The IC50 was no more than 500 nM.

What about the IC50 [2] of the same compound?
Its IC50 is no more than 500 nM.

What about the IC50 [3] of the same compound?
The IC50 was no more than 50 nM.

`c1ncc(-c2cn(C3(c4ccc(N5CCC[C@@H](NCC6CC6)C5)cn4)COC3)nn2)cc1CC1CC1` [Compound 346, (R)-N-(cyclopropylmethyl)-1-(6-(3-(4-(5-(cyclopropylmethyl)pyridin-3-yl)-1H-1,2,3-triazol-1-yl)oxetan-3-yl)pyridin-3-yl)piperdin-3-amine] was tested. Which IC50 [1] did it give?
The IC50 was no more than 500 nM.

And the IC50 [2]?
Its IC50 is no more than 500 nM.

What about the IC50 [3] of the same compound?
Its IC50 is no more than 50 nM.

What does the source list for `FC12CC(CN[C@@H]3CCCN(c4ccc(C5(n6cc(-c7cncc(N8CCCC8)n7)nn6)COC5)nc4)C3)(C1)C2` [Compound 308, (R)-N-((3-fluorobicyclo[1.1.1]pentan-1-yl)methyl)-1-(6-(3-(4-(6-(pyrrolidin-1-yl)pyrazin-2-yl)-1H-1,2,3-triazol-1-yl)oxetan-3-yl)pyridin-3-yl)piperdin-3-amine]?
IC50 [1]: ≤ 500 nM; IC50 [2]: ≤ 500 nM; IC50 [3]: ≤ 50 nM

Which results are given for `c1ncc(-c2cn(C3(c4ccc(N5CCC[C@@H](NCC6CCC6)C5)cn4)COC3)nn2)cc1OC1CCC1` [Compound 307, (R)-1-(6-(3-(4-(5-cyclobutoxypyridin-3-yl)-1H-1,2,3-triazol-1-yl)oxetan-3-yl)pyridin-3-yl)-N-(cyclobutylmethyl)piperidin-3-amine]?
IC50 [1]: ≤ 500 nM; IC50 [2]: ≤ 500 nM; IC50 [3]: ≤ 50 nM

With `CC(c1ccc(N2CCC[C@@H](NCC3CCC3)C2)nn1)n1cc(-c2cncc(N3CCCC3)c2)nn1` (stereo partly drawn) [Compound 257, (3R)—N-(cyclobutylmethyl)-1-(6-(1-(4-(5-(pyrrolidin-1-yl)pyridin-3-yl)-1H-1,2,3-triazol-1-yl)ethyl)pyridazin-3-yl)piperidin-3-amine] as the compound, how does the IC50 [1] read?
The IC50 was no more than 500 nM.

And the IC50 [2]?
The IC50 was no more than 500 nM.

And the IC50 [3]?
Its IC50 is no more than 50 nM.

Which results are given for `COc1cncc(-c2cn(C(C)n3ccc(N4CCC[C@@H](NCC5CCC5)C4)cc3=O)nn2)c1` (single isomer, unassigned) [Compound 055]?
IC50 [1]: ≤ 500 nM; IC50 [2]: ≤ 500 nM; IC50 [3]: ≤ 50 nM

How did the IC50 [1] turn out when `COc1cncc(-c2cn(C(C)c3ccc(N4CCC[C@@H](NCC5CCC5)C4)nc3F)nn2)c1` (single isomer, unassigned) [Compound 138] was run?
The IC50 was 500 to 5000 nM.

And the IC50 [2]?
Its IC50 is 500 to 5000 nM.

And the IC50 [3]?
Its IC50 is no more than 50 nM.

Which IC50 [1] does the source give for `CC(c1ccc(N2CCC[C@@H](NCC3(C)CC3)C2)nn1)n1cnc(-c2cncc(N3CCCC3)n2)c1` (single isomer, unassigned) [Compound 348] here?
The IC50 was no more than 500 nM.

And the IC50 [2]?
The IC50 was no more than 500 nM.

And the IC50 [3]?
The IC50 was no more than 50 nM.

How did the IC50 [1] turn out when `COc1cncc(-c2cn(C(C)c3ccc(N4CCC[C@@H](NCC5CCC5)C4)nn3)nn2)n1` (single isomer, unassigned) [Compound 258] was run?
The IC50 was 500 to 5000 nM.

What about the IC50 [2] of the same compound?
Its IC50 is 500 to 5000 nM.

What about the IC50 [3] of the same compound?
Its IC50 is no more than 50 nM.

Which results are given for `CC(c1cnn(-c2cncc(N3CCCC3)c2)c1)n1ccc(N2CCC[C@@H](NCC3CC3)C2)cc1=O` (single isomer, unassigned) [Compound 253]?
IC50 [1]: ≤ 500 nM; IC50 [2]: ≤ 500 nM; IC50 [3]: ≤ 50 nM

Which IC50 [1] does the source give for `c1cnn(-c2cncc(-c3cn(C4(c5ccc(N6CCC[C@@H](NCC7CCC7)C6)cn5)COC4)nn3)n2)c1` [Compound 289, (R)-1-(6-(3-(4-(6-(1H-pyrazol-1-yl)pyrazin-2-yl)-1H-1,2,3-triazol-1-yl)oxetan-3-yl)pyridin-3-yl)-N-(cyclobutylmethyl)piperidin-3-amine] here?
Its IC50 is no more than 500 nM.

What about the IC50 [2] of the same compound?
Its IC50 is no more than 500 nM.

What about the IC50 [3] of the same compound?
The IC50 was no more than 50 nM.

With `COc1cncc(-c2ncn(C(C)n3ccc(N4CCC[C@@H](NCC5CCC5)C4)cc3=O)n2)c1` (single isomer, unassigned) [Compound 135] as the compound, how does the IC50 [1] read?
Its IC50 is 500 to 5000 nM.

And the IC50 [2]?
The IC50 was 500 to 5000 nM.

And the IC50 [3]?
Its IC50 is no more than 50 nM.

Which IC50 [1] does the source give for `CC(n1cc(-c2cncc(N3CCC(F)(F)C3)n2)nn1)n1ccc(N2CCC[C@@H](NCC3CC3)C2)cc1=O` (single isomer, unassigned) [Compound 227] here?
The IC50 was no more than 500 nM.

And the IC50 [2]?
Its IC50 is no more than 500 nM.

What about the IC50 [3] of the same compound?
Its IC50 is no more than 50 nM.

Which IC50 [1] does the source give for `c1ccn(-c2cncc(-c3cn(C4(c5ccc(N6CCC[C@@H](NCC7CCC7)C6)cn5)COC4)nn3)n2)c1` [Compound 295, (R)-1-(6-(3-(4-(6-(1H-pyrrol-1-yl)pyrazin-2-yl)-1H-1,2,3-triazol-1-yl)oxetan-3-yl)pyridin-3-yl)-N-(cyclobutylmethyl)piperidin-3-amine] here?
Its IC50 is 500 to 5000 nM.

And the IC50 [2]?
The IC50 was no more than 500 nM.

And the IC50 [3]?
Its IC50 is no more than 50 nM.

Which results are given for `CC(c1ccc(N2CCC[C@@H](NCC3CCC3)C2)cn1)n1cc(-c2cncc(C3CC3)n2)nn1` (stereo partly drawn) [Compound 292, (3R)—N-(cyclobutylmethyl)-1-(6-(1-(4-(6-cyclopropylpyrazin-2-yl)-1H-1,2,3-triazol-1-yl)ethyl)pyridin-3-yl)piperidin-3-amine]?
IC50 [1]: 500 to 5000 nM; IC50 [2]: 500 to 5000 nM; IC50 [3]: ≤ 50 nM

Which IC50 [1] does the source give for `CC1(CN[C@@H]2CCCN(c3ccc(C4(n5cc(-c6cncc(C7CC7)c6)nn5)COC4)nc3)C2)CC1` [Compound 333, (R)-1-(6-(3-(4-(5-cyclopropylpyridin-3-yl)-1H-1,2,3-triazol-1-yl)oxetan-3-yl)pyridin-3-yl)-N-((1-methylcyclopropyl)methyl)piperidin-3-amine] here?
Its IC50 is no more than 500 nM.

And the IC50 [2]?
Its IC50 is no more than 500 nM.

What about the IC50 [3] of the same compound?
The IC50 was no more than 50 nM.

With `COc1cncc(-c2cn(C(C)c3ccc(N4CCC[C@@H](NCC5CCC5)C4)cc3)cn2)c1` (single isomer, unassigned) [Compound 296] as the compound, how does the IC50 [1] read?
The IC50 was 500 to 5000 nM.

What about the IC50 [2] of the same compound?
Its IC50 is 500 to 5000 nM.

And the IC50 [3]?
Its IC50 is no more than 50 nM.
